Test results reported in ChEMBL document CHEMBL1154839, “Molassamide, a depsipeptide serine protease inhibitor from the marine cyanobacterium Dichothrix utahensis” (J Nat Prod, 2010).
Activity calls are given as the source filed them. No cut-off for these calls is given here.

Assays:
[1] = biological target: Chymotrypsin-like elastase family member 1 (Sus scrofa, UniProt P00772); assay: Inhibition of pig pancreatic elastase preincubated for 15 mins by spectrophotometry
Chymotrypsinogen A = Chymotrypsinogen A (Bos taurus, UniProt P00766); assay: Inhibition of bovine pancreas alpha-chymotrypsin preincubated for 10 mins by spectrophotometry
Trypsin (Sus scrofa) = Trypsin (Sus scrofa) (UniProt P00761); assay: Inhibition of pig pancreas trypsin at 10 uM preincubated for 10 mins by spectrophotometry
Trypsin (Sus scrofa), sequence (P00761 whole entry): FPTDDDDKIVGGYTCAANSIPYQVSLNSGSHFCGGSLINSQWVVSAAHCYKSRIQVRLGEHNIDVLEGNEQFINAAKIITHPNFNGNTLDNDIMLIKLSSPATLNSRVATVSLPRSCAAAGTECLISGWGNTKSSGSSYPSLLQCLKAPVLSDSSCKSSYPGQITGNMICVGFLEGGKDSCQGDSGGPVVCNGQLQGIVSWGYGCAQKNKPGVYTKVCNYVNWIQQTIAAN

Chymotrypsin-like elastase family member 1, sequence (P00772 whole entry): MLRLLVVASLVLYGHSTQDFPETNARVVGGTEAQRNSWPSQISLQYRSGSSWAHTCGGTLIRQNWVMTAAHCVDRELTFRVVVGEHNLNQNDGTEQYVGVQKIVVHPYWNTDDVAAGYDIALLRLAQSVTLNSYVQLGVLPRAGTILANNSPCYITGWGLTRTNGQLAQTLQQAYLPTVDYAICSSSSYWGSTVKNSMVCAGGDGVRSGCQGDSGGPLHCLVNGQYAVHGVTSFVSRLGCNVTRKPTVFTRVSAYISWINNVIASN

Compound: C/C=C1\NC(=O)[C@@H](NC(=O)[C@@H](NC(=O)[C@H](C)NC(=O)CCC)[C@@H](C)O)[C@@H](C)OC(=O)[C@H](C(C)C)NC(=O)[C@H](Cc2ccc(O)cc2)N(C)C(=O)[C@H](Cc2ccccc2)N2C(=O)[C@H](CC[C@H]2O)NC1=O [MOLASSAMIDE]
- IC50 [1]: 32 nM
- IC50 (Chymotrypsinogen A): 234 nM
- inhibition (Trypsin (Sus scrofa)): inactive
